PubChem BioAssay AID248 (DTP/NCI, 2004)
Toxic doses and inconclusive results are not listed. No stated cut-off is given here; in the data, active means T/C of 150% or more; inactive means T/C below 125%.

System: L1210 leukemia ip in BDF1 mice, survival T/C
Experiment: NCI In Vivo Anticancer Drug Screen. Data for tumor model L1210 Leukemia (intraperitoneal) in B6D2F1 (BDF1) mice
Conditions: endpoint: mean survival time, higher = longer survival
Method in brief: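 Transplanted-tumor mice were given test agent; controls received vehicle only. Survival readings from the two groups were divided (treated over control).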

[1] = dose: 100.0 mg/kg/injection, schedule: Q04DX003 (ip), vehicle: saline with Tween-80
[2] = dose: 200.0 mg/kg/injection, schedule: Q04DX003 (ip), vehicle: saline with Tween-80
[3] = dose: 400.0 mg/kg/injection, schedule: Q04DX003 (ip), vehicle: saline with Tween-80
[4] = dose: 100.0 mg/kg/injection, schedule: Q01DX009 (ip), vehicle: saline with Tween-80
[5] = dose: 200.0 mg/kg/injection, schedule: Q01DX009 (ip), vehicle: saline with Tween-80
[6] = dose: 100.0 mg/kg/injection, schedule: Q04DX003 (ip), vehicle: saline
[7] = dose: 200.0 mg/kg/injection, schedule: Q04DX003 (ip), vehicle: saline
[8] = dose: 400.0 mg/kg/injection, schedule: Q04DX003 (ip), vehicle: saline
[9] = dose: 100.0 mg/kg/injection, schedule: Q01DX009 (ip), vehicle: Klucel (hydroxypropylcellulose) (HPC)
[10] = dose: 100.0 mg/kg/injection, schedule: Q04DX002 (ip), vehicle: Klucel (hydroxypropylcellulose) (HPC)
[11] = dose: 200.0 mg/kg/injection, schedule: Q01DX009 (ip), vehicle: Klucel (hydroxypropylcellulose) (HPC)
[12] = dose: 50.0 mg/kg/injection, schedule: Q01DX001 (ip), vehicle: carboxymethylcellulose (CMC)
[13] = dose: 100.0 mg/kg/injection, schedule: Q01DX001 (ip), vehicle: carboxymethylcellulose (CMC)
[14] = dose: 200.0 mg/kg/injection, schedule: Q01DX001 (ip), vehicle: carboxymethylcellulose (CMC)
[15] = dose: 400.0 mg/kg/injection, schedule: Q01DX001 (ip), vehicle: carboxymethylcellulose (CMC)
[16] = dose: 100.0 mg/kg/injection, schedule: Q01DX001 (ip), vehicle: saline
[17] = dose: 200.0 mg/kg/injection, schedule: Q01DX001 (ip), vehicle: saline
[18] = dose: 400.0 mg/kg/injection, schedule: Q01DX001 (ip), vehicle: saline

Measured: T/C

CCCc1cc2c3c(c(=O)oc2cc1OCCN1CCCC1)CCCC3
inactive: dose: 37.5 mg/kg/injection, schedule: Q01DX001 (ip), vehicle: saline with Tween-80 92 % of control | dose: 37.5 mg/kg/injection, schedule: Q04DX003 (ip), vehicle: saline with Tween-80 96 % of control | dose: 75.0 mg/kg/injection, schedule: Q01DX001 (ip), vehicle: saline with Tween-80 94 % of control | dose: 75.0 mg/kg/injection, schedule: Q04DX003 (ip), vehicle: saline with Tween-80 100 % of control | dose: 150.0 mg/kg/injection, schedule: Q01DX001 (ip), vehicle: saline with Tween-80 100 % of control | dose: 150.0 mg/kg/injection, schedule: Q04DX003 (ip), vehicle: saline with Tween-80 98 % of control

COC(=O)C(C)C1CCC2C3=CC=C4CC(OC(C)=O)CCC4(C)C3CCC21C (stereo not drawn)
inactive: dose: 100.0 mg/kg/injection, schedule: Q01DX001 (ip), vehicle: saline with Tween-80 93 % of control | dose: 200.0 mg/kg/injection, schedule: Q01DX001 (ip), vehicle: saline with Tween-80 98 % of control | dose: 400.0 mg/kg/injection, schedule: Q01DX001 (ip), vehicle: saline with Tween-80 104 % of control

CC(C)CC(NC(=O)CNC(=O)CNC(=O)OCc1ccccc1)C(=O)O (stereo not drawn)
inactive: [1] 100 % of control | [2] 103 % of control | [3] 105 % of control

Cc1ccc([N+](=O)[O-])cc1NC(=O)C(Cl)(Cl)Cl
inactive: [4] 94 % of control | [5] 98 % of control | dose: 400.0 mg/kg/injection, schedule: Q01DX009 (ip), vehicle: saline with Tween-80 100 % of control

Cc1nc(=O)ccn1Cc1ccccc1
inactive: [6] 101 % of control | [7] 101 % of control | [8] 96 % of control

Cc1noc(N)c1N
inactive: dose: 100.0 mg/kg/injection, schedule: Q01DX009 (ip), vehicle: water 105 % of control | dose: 100.0 mg/kg/injection, schedule: Q04DX003 (ip), vehicle: water 93 % of control | dose: 200.0 mg/kg/injection, schedule: Q01DX009 (ip), vehicle: water 115 % of control | dose: 200.0 mg/kg/injection, schedule: Q04DX003 (ip), vehicle: water 96 % of control | dose: 400.0 mg/kg/injection, schedule: Q01DX009 (ip), vehicle: water 121 % of control | dose: 400.0 mg/kg/injection, schedule: Q04DX003 (ip), vehicle: water 102 % of control

Cc1cc(=O)n2c3c(cc(C#N)cc13)OC2
inactive: [9] 90 % of control | [10] 96 % of control | [11] 98 % of control | dose: 400.0 mg/kg/injection, schedule: Q01DX009 (ip), vehicle: Klucel (hydroxypropylcellulose) (HPC) 95 % of control | dose: 400.0 mg/kg/injection, schedule: Q04DX002 (ip), vehicle: Klucel (hydroxypropylcellulose) (HPC) 89 % of control

CCNC(=O)Oc1c(Cl)cc(S(=O)(=O)F)cc1Cl
inactive: dose: 12.5 mg/kg/injection, schedule: Q01DX009 (ip), vehicle: saline with Tween-80 90 % of control | dose: 12.5 mg/kg/injection, schedule: Q04DX002 (ip), vehicle: saline with Tween-80 93 % of control | dose: 25.0 mg/kg/injection, schedule: Q01DX009 (ip), vehicle: saline with Tween-80 103 % of control | dose: 25.0 mg/kg/injection, schedule: Q04DX002 (ip), vehicle: saline with Tween-80 101 % of control | dose: 50.0 mg/kg/injection, schedule: Q04DX002 (ip), vehicle: saline with Tween-80 96 % of control

CCCCCC(=O)Oc1ccccc1C(=O)O
inactive: [12] 100 % of control | [13] 100 % of control | [14] 97 % of control | [15] 92 % of control

Cc1ccc2sc(C)cc(=O)c2c1
inactive: [13] 100 % of control | [14] 100 % of control | [15] 98 % of control

CC1(C)C2CCC(O)(C(=O)O)C1C2 (stereo not drawn)
inactive: [12] 106 % of control | [13] 91 % of control | [14] 91 % of control | [15] 100 % of control

O=C(O)c1cccnc1.[Cu+2]
inactive: dose: 9.5 mg/kg/injection, schedule: Q01DX001 (ip), vehicle: other 97 % of control | dose: 19.0 mg/kg/injection, schedule: Q01DX001 (ip), vehicle: other 97 % of control | dose: 38.0 mg/kg/injection, schedule: Q01DX001 (ip), vehicle: other 100 % of control

Cc1ccc([N+](=O)[O-])o1
inactive: [1] 91 % of control | [2] 87 % of control

Nc1ccc(N=Nc2ccc(S(N)(=O)=O)cc2)c(N)n1
inactive: [16] 107 % of control | [17] 114 % of control | [18] 104 % of control

Cc1cc(NCC2CCNCC2)nc(/N=C(\N)Nc2ccc(Cl)c(Cl)c2)n1
inactive: dose: 12.5 mg/kg/injection, schedule: Q04DX003 (ip), vehicle: saline 102 % of control | dose: 25.0 mg/kg/injection, schedule: Q04DX003 (ip), vehicle: saline 113 % of control | dose: 50.0 mg/kg/injection, schedule: Q04DX003 (ip), vehicle: saline 102 % of control | [6] 106 % of control

COCC/C(COC)=N\N=C(/CCOC)COC
inactive: dose: 50.0 mg/kg/injection, schedule: Q01DX001 (ip), vehicle: saline 97 % of control | [16] 103 % of control | [9] 103 % of control | [17] 106 % of control | [11] 111 % of control | [18] 109 % of control

Cc1cc2nc(CC(O)(C(F)(F)F)C(F)(F)F)oc2cc1C
inactive: [1] 96 % of control | [2] 102 % of control | [3] 101 % of control

CSc1ccc(NC(=O)Nc2ccc(Cl)cc2[N+](=O)[O-])cc1
inactive: [9] 97 % of control | [11] 91 % of control

OC1CCCCC1c1ccccc1 (stereo not drawn)
inactive: dose: 50.0 mg/kg/injection, schedule: Q01DX009 (ip), vehicle: saline with Tween-80 87 % of control | [4] 87 % of control | [5] 97 % of control

O=C1OC(=O)C2C3C=CC(C4C=CC43)C12 (stereo not drawn)
inactive: dose: 100.0 mg/kg/injection, schedule: Q01DX009 (ip), vehicle: saline 93 % of control | dose: 100.0 mg/kg/injection, schedule: Q04DX002 (ip), vehicle: saline with Tween-80 103 % of control | [6] 86 % of control | dose: 200.0 mg/kg/injection, schedule: Q01DX009 (ip), vehicle: saline 102 % of control | dose: 200.0 mg/kg/injection, schedule: Q04DX002 (ip), vehicle: saline with Tween-80 100 % of control | [7] 93 % of control | [8] 100 % of control

O=C(O)C(=O)c1ccccc1NC(=O)c1ccc(Cl)cc1
inactive: dose: 50.0 mg/kg/injection, schedule: Q04DX002 (ip), vehicle: Klucel (hydroxypropylcellulose) (HPC) 101 % of control | [10] 93 % of control | dose: 200.0 mg/kg/injection, schedule: Q04DX002 (ip), vehicle: Klucel (hydroxypropylcellulose) (HPC) 93 % of control

Nc1nc2nc(N=Nc3ccc(N=Nc4nc5nc(N)[nH]c(=O)c5[nH]4)cc3)[nH]c2c(=O)[nH]1
inactive: dose: 100.0 mg/kg/injection, schedule: Q04DX003 (ip), vehicle: Klucel (hydroxypropylcellulose) (HPC) 91 % of control | dose: 200.0 mg/kg/injection, schedule: Q04DX003 (ip), vehicle: Klucel (hydroxypropylcellulose) (HPC) 99 % of control | dose: 400.0 mg/kg/injection, schedule: Q04DX003 (ip), vehicle: Klucel (hydroxypropylcellulose) (HPC) 88 % of control

C/C=C/[N+]([O-])=NC(C)CCCCCC (stereo not drawn)
inactive: dose: 100.0 mg/kg/injection, schedule: Q04DX002 (ip), vehicle: saline 105 % of control | dose: 200.0 mg/kg/injection, schedule: Q04DX002 (ip), vehicle: saline 97 % of control | dose: 400.0 mg/kg/injection, schedule: Q04DX002 (ip), vehicle: saline 94 % of control

N#Cc1ccccc1CNc1ccccc1
inactive: dose: 100.0 mg/kg/injection, schedule: Q01DX001 (ip), vehicle: Klucel (hydroxypropylcellulose) (HPC) 94 % of control | dose: 200.0 mg/kg/injection, schedule: Q01DX001 (ip), vehicle: Klucel (hydroxypropylcellulose) (HPC) 96 % of control | dose: 400.0 mg/kg/injection, schedule: Q01DX001 (ip), vehicle: Klucel (hydroxypropylcellulose) (HPC) 96 % of control

COc1cc(S(=O)(=O)F)ccc1NC(=O)/C=C/c1ccc([N+](=O)[O-])cc1
inactive: [16] 103 % of control | [17] 94 % of control | [18] 100 % of control
